pIC50: −log10 of the molar value.
How the values were obtained:
[1] = molecular target: nuclear factor-kappa B (NF-kB)-inducing kinase (NIK) (Homo sapiens (Human), UniProt Q99558); assay: NIK enzyme inhibition assay (Transcreener ADP, NIK ADP-FP); format: biochemical; details: purified NIK 0.5 nM, 10 μM ATP, fluorescence polarization; read-out: NIK ADP-FP (Ki μM)
[2] = tested on: REL-A (p65) nuclear translocation, HeLa cells; assay: REL-A (p65) nuclear translocation assay in HeLa cells (classical NF-kB signaling, TNF-α stimulated); format: cell-based; details: Homo sapiens, 0.5 h; HeLa cells, 10 ng/mL TNF-α for 30 minutes; read-out: REL-A HeLa Transloc Assay (IC50)
In short: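 HeLa cells were exposed to test compounds at various concentrations (0.2% DMSO final) in medium with 10% fetal bovine serum for 4.5 hours, then stimulated for 30 minutes with 10 ng/mL TNF-α. After fixation in 4% paraformaldehyde, 0.1% Triton X-100 permeabilization and staining with 400 ng/mL anti-REL-A (p65) antibody, Alexa488 secondary and DRAQ5, Opera imaging gave nuclear-to-cytoplasmic signal ratios to calculate IC50.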

[3] = tested on: p52 (NF-kB2) nuclear translocation, HeLa cells; assay: p52 (NF-kB2) nuclear translocation assay in HeLa cells (non-classical NF-kB signaling, anti-lymphotoxin beta receptor antibody stimulated); format: cell-based; details: Homo sapiens, 100 ng/mL anti-lymphotoxin beta receptor antibody for 5 hours, read-out: p52 HeLa Transloc Assay (IC50)
In short: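 HeLa cells in 10% FBS medium were treated with compound (0.2% DMSO final) and stimulated with 100 ng/mL anti-lymphotoxin beta receptor antibody for 5 h. Fixed cells were immunostained for p52 and imaged with DRAQ5 nuclear stain. Translocation is the nuclear to cytoplasmic intensity ratio, and IC50 values are in micromolar.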

nuclear factor-kappa B (NF-kB)-inducing kinase (NIK), sequence (Q99558 whole entry): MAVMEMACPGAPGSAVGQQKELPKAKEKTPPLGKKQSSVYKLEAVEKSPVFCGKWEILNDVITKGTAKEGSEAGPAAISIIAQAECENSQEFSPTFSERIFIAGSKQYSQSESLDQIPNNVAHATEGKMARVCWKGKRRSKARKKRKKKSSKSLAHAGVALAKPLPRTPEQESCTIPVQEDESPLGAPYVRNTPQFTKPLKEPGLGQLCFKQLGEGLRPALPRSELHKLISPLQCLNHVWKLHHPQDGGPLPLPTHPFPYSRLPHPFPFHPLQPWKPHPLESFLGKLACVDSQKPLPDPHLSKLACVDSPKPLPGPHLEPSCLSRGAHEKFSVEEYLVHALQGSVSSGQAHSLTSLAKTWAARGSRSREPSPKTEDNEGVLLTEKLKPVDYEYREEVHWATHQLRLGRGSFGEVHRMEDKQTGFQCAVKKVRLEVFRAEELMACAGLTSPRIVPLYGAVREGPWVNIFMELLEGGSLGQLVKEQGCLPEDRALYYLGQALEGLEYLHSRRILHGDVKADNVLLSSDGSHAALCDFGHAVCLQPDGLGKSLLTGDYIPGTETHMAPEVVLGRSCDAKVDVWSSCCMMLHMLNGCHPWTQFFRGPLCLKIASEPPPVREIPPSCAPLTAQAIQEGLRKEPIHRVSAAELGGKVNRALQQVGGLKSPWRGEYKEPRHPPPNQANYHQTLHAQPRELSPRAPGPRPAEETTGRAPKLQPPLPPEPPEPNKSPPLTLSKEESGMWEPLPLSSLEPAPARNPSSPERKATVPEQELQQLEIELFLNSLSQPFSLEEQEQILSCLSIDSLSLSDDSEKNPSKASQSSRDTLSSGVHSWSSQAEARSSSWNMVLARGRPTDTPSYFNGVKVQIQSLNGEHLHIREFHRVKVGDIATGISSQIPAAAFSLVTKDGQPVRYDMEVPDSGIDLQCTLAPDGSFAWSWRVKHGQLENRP

SMILES	Ki [1] [nM]	pIC50 [2]	pIC50 [3]
CN1CC[C@@](O)(C#Cc2cc(-n3nc(C(N)=O)c4c3CCCC4)ccn2)C1=O [Compound 166, 1-[2-[2-[(3R)-3-hydroxy-1-methyl-2-oxo-pyrrolidin-3-yl]ethynyl]-4-pyridyl]-4,5,6,7-tetrahydroindazole-3-carbox-amide]	1.19	4.70	6.49
CN1CC[C@@](O)(C#Cc2cc(-n3nc(C(N)=O)c4c3CCCC4)ccc2C#N)C1=O [Compound 167, 1-[4-cyano-3-[2-[(3R)-3-hy-droxy-1-methyl-2-oxo-pyrroli-din-3-yl]ethynyl]phenyl]-4,5,6,7-tetrahydroindazole-3-carboxamide]	1.93	4.70	6.40
CN1CC[C@@](O)(C#Cc2cccc(-n3nc(C(N)=O)c4c3[C@H](O)CC4)c2)C1=O [Compound 169, (6R)-6-hydroxy-1-[3-[2-[(3R)-3-hydroxy-1-methyl-2-oxo-pyrrolidin-3-yl]ethynyl]phenyl]-5,6-dihydro-4H-cyclo-penta[c]pyrazole-3-carbox-amide]	2.96	4.70	5.95
COc1cc2c(C(N)=O)nn(-c3cccc(C#C[C@]4(O)CCN(C)C4=O)c3)c2nn1 [Compound 173, 1-[3-[2-[(3R)-3-hydroxy-1-methyl-2-oxo-pyrrolidin-3-yl]ethynyl]phenyl]-5-methoxy-pyrazolo[3,4-c]pyridazine-3-carboxamide]	0.55	5.70	6.75
CN1CC[C@@](O)(C#Cc2cccc(-n3nc(C(N)=O)c4ccnnc43)c2)C1=O [Compound 174, 1-[3-[2-[(3R)-3-hydroxy-1-methyl-2-oxo-pyrrolidin-3-yl]ethynyl]phenyl]pyrazolo [3,4-c]pyridazine-3-carbox-amide]	0.13	5.70	5.70
Cc1ccc2c(C(N)=O)nn(-c3cccc(C#C[C@]4(O)CCN(C)C4=O)c3)c2n1 [Compound 175, 1-[3-[2-[(3R)-3-hydroxy-1-methyl-2-oxo-pyrrolidin-3-yl]ethynyl]phenyl]-6-methyl-pyrazolo[3,4-b]pyridine-3-carboxamide]	0.05	< 5.70	6.87
CN1CC[C@@](O)(C#Cc2cccc(-c3nc(C(N)=O)n4c3CCCC4)c2)C1=O [Compound 177, (R)-1-(3-((3-hydroxy-1-methyl-2-oxopyrrolidin-3-yl)ethynyl)phenyl)-5,6,7,8-tetrahydroimidazo[1,5-a]pyridine-3-carboxamide]	0.11	< 5.70	6.82
CN1CC[C@@](O)(C#Cc2cccc(-c3nc(C(N)=O)n4ccc(C(N)=O)cc34)c2)C1=O [Compound 178, 1-[3-[2-[(3R)-3-hydroxy-1-methyl-2-oxo-pyrrolidin-3-yl]ethynyl]phenyl]imidazo [1,5-a]pyridine-3,7-dicarboxamide]	0.1	< 5.70	6.20
COc1ccn2c(C(N)=O)nc(-c3cccc(C#C[C@@](C)(O)c4nnc(C)o4)c3)c2c1 [Compound 181, 1-[3-[(3R)-3-hydroxy-3-(5-methyl-1,3,4-oxadiazol-2-yl)but-1-ynyl]phenyl]-7-methoxy-imidazo[1,5-a] pyridine-3-carboxamide]	0.1	< 5.70	7.32
Cc1nnc([C@](C)(O)C#Cc2cccc(-c3nc(C(N)=O)n4cc(Cl)ccc34)c2)o1 [Compound 185, 6-chloro-1-[3-[(3R)-3-hydroxy-3-(5-methyl-1,3,4-oxadiazol-2-yl)but-1-ynyl]phenyl]imidazo[1,5-a]pyridine-3-carboxamide]	7.54	< 5.70	5.82
CN1CC[C@@](O)(C#Cc2ccc(F)c(-c3nc(C(N)=O)n4cc(Cl)ccc34)c2)C1=O [Compound 186, 6-chloro-1-[2-fluoro-5-[2-[(3R)-3-hydroxy-1-methyl-2-oxo-pyrrolidin-3-yl]ethynyl]phenyl]imidazo[1,5-a] pyridine-3-carboxamide]	0.1	< 5.70	7.44

— patent US9605005B2, “Alkynyl alcohols and methods of use” (Genentech, Inc., priority 2013, dated 2017)
